Assay results reported in patent US20260193242A1, “USEFUL COMPOUNDS FOR MODULATING INFLAMMATION” (FLAGSHIP PIONEERING INNOVATIONS VI, LLC, priority 2022, published 2026).

Columns and labels:
[1] = test system: R848-driven NFκB reporter (SEAP) in THP-1 cells; test: TLR7/8 (R848) stimulated NFκB reporter gene assay in THP1-Dual cells; assay type: cell-based; conditions: Homo sapiens, THP-1, 10 μM compound, 1 μM R848, THP1-Dual cells; read-out: R848-driven NFκB reporter gene assay (Percent inhibition at 10 μM)
Procedure: Compounds described herein are added to the human leukemic monocyte-like cell line THP-1 for bioactivity assessment. THP1-Dual cells (InvivoGen, San Diego, CA) feature the Lucia gene, a secreted luciferase reporter gene, under the control of an ISG54 minimal promoter in conjunction with five IFN-stimulated response elements. THP1-Dual cells also express a secreted embryonic alkaline phosphatase (SEAP) reporter gene driven by an IFN-β minimal promoter fused to five copies of the NF-κB consensus transcriptional response element and three copies of the c-Rel binding site. As a result, THP1-Dual cells allow the simultaneous study of the NF-κB pathway, by monitoring the activity of SEAP, and the IRF pathway, by assessing the activity of Lucia luciferase.
THP-1 dual reporter cells were grown in RPMI 1640 culture medium with 2 mM L-glutamine, 25 mM HEPES, 10% heat-inactivated fetal bovine serum, 100 μg/ml Normocin antibiotic (InvivoGen), Pen-Strep antibiotic (100 U/ml-100 μg/ml, InvivoGen). On the day of the assay, cells were seeded in a 384 flat-bottom well plate at 25,000 cells/well and incubated for 2 hours. Cells were then incubated with 10 μM of the compounds described herein or with 1 μM of IKK-16 (Selleck), a potent inhibitor of IκB kinases (IKKs) or with DMSO (vehicle control) for 2 hours, followed by the addition of the synthetic TLR7/8 agonist R848 at 1 μM and incubation for 16 hours. After incubation was concluded, the cultures supernatants were collected and IRF related activity was assessed by measurement of the Lucia luciferase, using Quanti-Luc assay (InvivoGen). NF-κB pathway activity was assessed by quantifying SEAP using Quanti-Blue assay (InvivoGen).

[2] = test system: TNBS-induced colitis, Balb/c mice; test: TNBS-induced model of colitis in mice, dosing from day 2, therapeutic mode; assay type: in vivo
Procedure: Female Balb/c mice aged 8 weeks and weighing 18-20 g were housed under standard conditions. The mice were divided into groups with 8-10 mice in each group by body weight. Mice in sham group received intracolonic injection with 50% ethanol (0.1 mL) at day 0, whereas mice in other Trinitrobenzene sulfonic acid (TNBS) colitis model groups received intracolonic injection of 2% TNBS solution in ethanol (0.1 mL) at day 0. The reference compound Mesalazine (Selleck) and test articles described here were dosed from day-1 to day 6. Day 6 was the endpoint, and samples were immediately harvested for the last endpoint. Mesalazine was dissolved in distilled water (pH 7.0) and test articles were dissolved in Phosal 50 PG for delivery by oral gavage.
Body weight and Disease Activity Index (DAI) scores were recorded daily to assess the colitis. DAI score was the sum of the weight loss score, stool score and bleeding sub-scores. A blinded scoring system was employed to assess the colitis. The DAI scorer blinded to the group information and animal ID was responsible for the stool consistency and bleeding evaluations. If there was no blood visible with naked eyes, the Fecal occult blood (FOB) test was performed with a fecal occult blood test strip (the improved pyramidon method).
Colon tissue morphology, damage and healing were assessed by histopathology. The colons were harvested, mesentery and adipose tissue were carefully removed, and internal contents were removed by rinsing with cold PBS. The colons were Swiss-rolled and fixed in neutralized paraformaldehyde followed by H&E staining. Clinical pathologists reviewed the H&E staining and scored blinded with animal ID. The pathological scoring standards were: crypt architecture (normal, 0-severe crypt distortion with loss of entire crypts, 3), degree of inflammatory cell infiltration (normal, 0-dense inflammatory infiltrate, 3), muscle thickening (base of crypt sits on the muscularis mucosae, 0-marked muscle thickening present, 3), goblet cell depletion (absent, 0-present, 1) and crypt abscess (absent, 0-present, 1).
The data was compared by ANOVA with post-hoc Dunnett's multiple comparisons test using Graph Pad Prism 7.0 software (San Diego, CA, USA). P-value<0.05 was considered as statistically significant difference. For pairwise comparison of histology scores and cytokines, unpaired t-test was used to calculate statistical significance. Data was expressed as mean±standard error of mean. In figures, statistical significance is denoted by asterisks: *p<0.05 **p<0.01 ***p<0.005, ****p<0.0001.
Procedures were identical to those in Example 26, except that dosing of the compounds described herein, as well as the positive control mesalamine, began on the second day after TNBS administration, as diagrammed in FIG. 18. Animals in this scenario have developed colitis symptoms before administration of test articles. This is more similar to the clinical scenario with patients with inflammatory bowel disorder presenting with symptoms. For this reason, we refer to these conditions as “therapeutic mode”.

[3] = test system: LPS induced septic shock, C57/B6L mice; test: LPS induced septic shock model in mice; assay type: in vivo; conditions: 30 mg/kg PO in Phosal 50, 30 min before LPS 1 mg/kg, plasma 2 hours after LPS, vs vehicle
Procedure: In the LPS induced septic shock model in mice, the TLR4 agonist LPS is injected into the peritoneal cavity of mice, inducing production of pro-inflammatory cytokines that can be measured in blood two hours later (FIG. 2).
Female C57/B6L mice, 5 mice in each group, were injected with LPS (1 mg/kg) to induce septic shock 30 minutes after oral administration of compounds described herein (formulated in Phosal 50) or the controls dexamethasone (formulated in saline), a corticosteroid, and MCC950 (formulated in 0.5% methylcellulose), an inflammasome inhibitor. The mice were euthanized 2 hours after LPS stimulation, and the whole blood was drawn, processed to plasma, and snap frozen. Cytokine levels in plasma were determined by cytometric bead array assay.

[4] = 30 mg/kg PO, QD, dosing from day 2
[5] = 30 mg/kg PO, QD, dosing from day 2, vs Vehicle group

## CN1[C@@H](C(=O)O)CC[C@H]1[C@@H]1CSC(c2ccccc2O)=N1 [Compound I-4, (2R,5S)-5-((R)-2-(2-hydroxyphenyl)-4,5-dihydrothiazol-4-yl)-1-methylpyrrolidine-2-carboxylic acid]
[1]
  inhibition at 10 µM: ≥ 50%
[2]; [4]
  Disease Activity Index (DAI) scores: improvement
  body weight (% initial weight) recovery: faster recovery rate
  total histology scores: lower
[2]; [5]
  IL-1B in plasma: decreased
  IL-6 in plasma: decreased
[2]; therapeutic mode
  colon recovery and mucosal healing: promoted the colon recovery and mucosal healing
[3]
  IFNγ in plasma: statistically significant decreases
  IL-12p70 in plasma: statistically significant decreases
  TNFα in plasma: statistically significant decreases
